molecular target: Heat shock protein HSP 90-alpha (Homo sapiens) (UniProt P07900); assay: Hsp90 inhibition measured as HER-2 degradation in MCF-7 cells

SMILES | IC50
CCC(CC)NCCCn1c(Sc2cc(OC)ccc2I)nc2c(N)ncnc21 | 210 nM
COc1ccc(I)c(Sc2nc3c(N)ncnc3n2CCCNC(C)C)c1 | 180 nM
CCCCn1c(Cc2cc(OC)ccc2Br)nc2c(N)ncnc21 | 8000 nM
COc1ccc(I)c(Sc2nc3c(N)ncnc3n2CCCNC(C)(C)C)c1 | 140 nM
CCCCn1c(Sc2cc(OC)ccc2OC)nc2c(N)ncnc21 | 3500 nM
C#CCCCn1c(Sc2cc(OC)ccc2I)nc2c(N)nc(F)nc21 | 360 nM
COc1ccc(I)c(Sc2nc3c(N)ncnc3n2CCC=C(C)C)c1 | 370 nM
CCCCn1c(Cc2cc(OC)ccc2I)nc2c(N)ncnc21 | 5000 nM
CCCCn1c(Cc2cc(OC)ccc2Cl)nc2c(N)ncnc21 | 20000 nM
CCC(C)NCCCn1c(Sc2cc(OC)ccc2I)nc2c(N)ncnc21 (stereo unspecified) | 210 nM
CCCCn1c(Cc2cc(OC)ccc2OC)nc2c(N)ncnc21 | 12000 nM

From ChEMBL document CHEMBL1148609, “Orally active purine-based inhibitors of the heat shock protein 90” (J Med Chem, 2006)
